The source made the active and inactive calls. The rule behind the calls is not given here.
Columns and labels:
Platelet [1] = experiment: Antiaggregating activity in Homo sapiens (human) platelet rich plasma assessed as inhibition of arachidonic acid-induced platelet aggregation at 0.5 uM incubated for 4 min prior to arachidonic acid-induction measured for 5.5 min by turbidometric analysis; assay type: functional
Platelet [2] = experiment: Antiaggregating activity in Homo sapiens (human) platelet rich plasma assessed as inhibition of arachidonic acid-induced platelet aggregation at 1 uM incubated for 4 min prior to arachidonic acid-induction measured for 5.5 min by turbidometric analysis; assay type: functional, cell-free
Platelet [3] = experiment: Antiaggregating activity in Homo sapiens (human) platelet rich plasma assessed as inhibition of adrenaline-induced platelet aggregation at 0.5 uM incubated for 4 min prior to adrenaline-induction measured for 5.5 min by turbidometric analysis; assay type: functional, cell-free
Platelet [4] = experiment: Antiaggregating activity in Homo sapiens (human) platelet rich plasma assessed as inhibition of adrenaline-induced platelet aggregation at 1 uM incubated for 4 min prior to adrenaline-induction measured for 5.5 min by turbidometric analysis; assay type: functional, cell-free
[5] = Antiaggregating activity in Homo sapiens (human) platelet rich plasma assessed as ristocetin-induced platelet aggregation at 1 uM incubated for 4 min prior to ristocetin-induction measured for 5.5 min by turbidometric analysis (reference value: 65 to 99%); assay type: functional
[6] = Antiaggregating activity in Homo sapiens (human) platelet rich plasma assessed as ristocetin-induced platelet aggregation at 0.5 uM incubated for 4 min prior to ristocetin-induction measured for 5.5 min by turbidometric analysis (reference value: 65 to 99%); assay type: functional
Platelet [7] = experiment: Antiaggregating activity in Homo sapiens (human) platelet rich plasma assessed as inhibition of ADP-induced platelet aggregation at 0.5 uM incubated for 4 min prior to ADP-induction measured for 5.5 min by turbidometric analysis; assay type: functional, cell-free
Platelet [8] = experiment: Antiaggregating activity in Homo sapiens (human) platelet rich plasma assessed as inhibition of ADP-induced platelet aggregation at 1 uM incubated for 4 min prior to ADP-induction measured for 5.5 min by turbidometric analysis; assay type: functional, cell-free
[9] = Antiaggregating activity in Homo sapiens (human) platelet rich plasma assessed as collagen-induced platelet aggregation at 0.5 uM incubated for 4 min prior to collagen-induction measured for 5.5 min by turbidometric analysis (reference value: 50 to 98%); assay type: functional
Platelet [10] = experiment: Antiaggregating activity in Homo sapiens (human) platelet rich plasma assessed as inhibition of collagen-induced platelet aggregation at 1 uM incubated for 4 min prior to collagen-induction measured for 5.5 min by turbidometric analysis; assay type: functional, cell-free
Platelet [11] = experiment: Antiaggregating activity in Homo sapiens (human) platelet rich plasma assessed as inhibition of adrenaline-induced platelet aggregation at 2 uM incubated for 4 min prior to adrenaline-induction measured for 5.5 min by turbidometric analysis; assay type: functional, cell-free
[12] = Antiaggregating activity in Homo sapiens (human) platelet rich plasma assessed as ristocetin-induced platelet aggregation at 2 uM incubated for 4 min prior to ristocetin-induction measured for 5.5 min by turbidometric analysis (reference value: 65 to 99%); assay type: functional
Platelet [13] = experiment: Antiaggregating activity in Homo sapiens (human) platelet rich plasma assessed as inhibition of ADP-induced platelet aggregation at 2 uM incubated for 4 min prior to ADP-induction measured for 5.5 min by turbidometric analysis; assay type: functional, cell-free
Platelet [14] = experiment: Antiaggregating activity in Homo sapiens (human) platelet rich plasma assessed as inhibition of collagen-induced platelet aggregation at 2 uM incubated for 4 min prior to collagen-induction measured for 5.5 min by turbidometric analysis; assay type: functional, cell-free
Platelet [15] = experiment: Antiaggregating activity in Homo sapiens (human) platelet rich plasma assessed as inhibition of arachidonic acid-induced platelet aggregation at 2 uM incubated for 4 min prior to arachidonic acid-induction measured for 5.5 min by turbidometric analysis; assay type: functional, cell-free
[16] = Antiaggregating activity in Homo sapiens (human) platelet rich plasma assessed as ADP-induced platelet aggregation at 0.1 uM incubated for 4 min prior to ADP-induction measured for 5.5 min by turbidometric analysis (reference value: 54 to 88%); assay type: functional
Platelet [17] = experiment: Antiaggregating activity in Homo sapiens (human) platelet rich plasma assessed as inhibition of adrenaline-induced platelet aggregation at 0.1 uM incubated for 4 min prior to adrenaline-induction measured for 5.5 min by turbidometric analysis; assay type: functional, cell-free
Platelet [18] = experiment: Antiaggregating activity in Homo sapiens (human) platelet rich plasma assessed as inhibition of adrenaline-induced platelet aggregation at 0.25 uM incubated for 4 min prior to adrenaline-induction measured for 5.5 min by turbidometric analysis; assay type: functional, cell-free
Platelet [19] = experiment: Antiaggregating activity in Homo sapiens (human) platelet rich plasma assessed as inhibition of ADP-induced platelet aggregation at 0.25 uM incubated for 4 min prior to ADP-induction measured for 5.5 min by turbidometric analysis; assay type: functional, cell-free
Platelet [20] = experiment: Antiaggregating activity in Homo sapiens (human) platelet rich plasma assessed as inhibition of adrenaline-induced platelet aggregation at 5 uM incubated for 4 min prior to adrenaline-induction measured for 5.5 min by turbidometric analysis; assay type: functional, cell-free
Platelet [21] = experiment: Antiaggregating activity in Homo sapiens (human) platelet rich plasma assessed as inhibition of ristocetin-induced platelet aggregation at 5 uM incubated for 4 min prior to ristocetin-induction measured for 5.5 min by turbidometric analysis; assay type: functional, cell-free
Platelet [22] = experiment: Antiaggregating activity in Homo sapiens (human) platelet rich plasma assessed as inhibition of ADP-induced platelet aggregation at 5 uM incubated for 4 min prior to ADP-induction measured for 5.5 min by turbidometric analysis; assay type: functional, cell-free
Platelet [23] = experiment: Antiaggregating activity in Homo sapiens (human) platelet rich plasma assessed as inhibition of collagen-induced platelet aggregation at 0.25 uM incubated for 4 min prior to collagen-induction measured for 5.5 min by turbidometric analysis; assay type: functional
Platelet [24] = experiment: Antiaggregating activity in Homo sapiens (human) platelet rich plasma assessed as inhibition of collagen-induced platelet aggregation at 5 uM incubated for 4 min prior to collagen-induction measured for 5.5 min by turbidometric analysis; assay type: functional, cell-free
Platelet [25] = experiment: Antiaggregating activity in Homo sapiens (human) platelet rich plasma assessed as inhibition of collagen-induced platelet aggregation at 0.5 uM incubated for 4 min prior to collagen-induction measured for 5.5 min by turbidometric analysis; assay type: functional, cell-free
[26] = Antiaggregating activity in Homo sapiens (human) platelet rich plasma assessed as collagen-induced platelet aggregation at 0.1 uM incubated for 4 min prior to collagen-induction measured for 5.5 min by turbidometric analysis (reference value: 50 to 98%); assay type: functional
[27] = Antiaggregating activity in Homo sapiens (human) platelet rich plasma assessed as ristocetin-induced platelet aggregation at 0.1 uM incubated for 4 min prior to ristocetin-induction measured for 5.5 min by turbidometric analysis (reference value: 65 to 99%); assay type: functional
[28] = Antiaggregating activity in Homo sapiens (human) platelet rich plasma assessed as ristocetin-induced platelet aggregation at 0.25 uM incubated for 4 min prior to ristocetin-induction measured for 5.5 min by turbidometric analysis (reference value: 65 to 99%); assay type: functional
[29] = Antiaggregating activity in Homo sapiens (human) platelet rich plasma assessed as arachidonic acid-induced platelet aggregation at 0.1 uM incubated for 4 min prior to arachidonic acid-induction measured for 5.5 min by turbidometric analysis (reference value: 55 to 100%); assay type: functional
Platelet [30] = experiment: Antiaggregating activity in Homo sapiens (human) platelet rich plasma assessed as inhibition of arachidonic acid-induced platelet aggregation at 0.25 uM incubated for 4 min prior to arachidonic acid-induction measured for 5.5 min by turbidometric analysis; assay type: functional, cell-free
Platelet [31] = experiment: Antiaggregating activity in Homo sapiens (human) platelet rich plasma assessed as inhibition of arachidonic acid-induced platelet aggregation at 5 uM incubated for 4 min prior to arachidonic acid-induction measured for 5.5 min by turbidometric analysis; assay type: functional, cell-free
[32] = Antiaggregating activity in Homo sapiens (human) platelet rich plasma assessed as ADP-induced platelet aggregation at 0.5 uM incubated for 4 min prior to ADP-induction measured for 5.5 min by turbidometric analysis (reference value: 54 to 88%); assay type: functional
[33] = Antiaggregating activity in Homo sapiens (human) platelet rich plasma assessed as disaggregation of ADP-induced platelet aggregation at 1 uM incubated for 4 min prior to ADP-induction measured for 5.5 min by turbidometric analysis relative to control; assay type: functional
[34] = Antiaggregating activity in Homo sapiens (human) platelet rich plasma assessed as arachidonic acid-induced platelet aggregation at 0.5 uM incubated for 4 min prior to arachidonic acid-induction measured for 5.5 min by turbidometric analysis (reference value: 55 to 100%); assay type: functional
[35] = Antiaggregating activity in Homo sapiens (human) platelet rich plasma assessed as arachidonic acid-induced platelet aggregation at 1 uM incubated for 4 min prior to arachidonic acid-induction measured for 5.5 min by turbidometric analysis (reference value: 55 to 100%); assay type: functional
Platelet [36] = experiment: Antiaggregating activity in Homo sapiens (human) platelet rich plasma assessed as inhibition of ADP-induced platelet aggregation at 2.5 uM incubated for 4 min prior to ADP-induction measured for 5.5 min by turbidometric analysis; assay type: functional, cell-free
Platelet [37] = experiment: Antiaggregating activity in Homo sapiens (human) platelet rich plasma assessed as inhibition of collagen-induced platelet aggregation at 2.5 uM incubated for 4 min prior to collagen-induction measured for 5.5 min by turbidometric analysis; assay type: functional, cell-free
Platelet [38] = experiment: Antiaggregating activity in Homo sapiens (human) platelet rich plasma assessed as collagen-induced platelet aggregation at 0.25 uM incubated for 4 min prior to collagen-induction measured for 5.5 min by turbidometric analysis (reference value: 50 to 98%); assay type: functional
Platelet [39] = experiment: Antiaggregating activity in Homo sapiens (human) platelet rich plasma assessed as inhibition of adrenaline-induced platelet aggregation at 2.5 uM incubated for 4 min prior to adrenaline-induction measured for 5.5 min by turbidometric analysis; assay type: functional, cell-free
Platelet [40] = experiment: Antiaggregating activity in Homo sapiens (human) platelet rich plasma assessed as inhibition of arachidonic acid-induced platelet aggregation at 2.5 uM incubated for 4 min prior to arachidonic acid-induction measured for 5.5 min by turbidometric analysis; assay type: functional, cell-free
[41] = Antiaggregating activity in Homo sapiens (human) platelet rich plasma assessed as disaggregation of ADP-induced platelet aggregation at 0.25 uM incubated for 4 min prior to ADP-induction measured for 5.5 min by turbidometric analysis relative to control; assay type: functional

| Structure (SMILES) | inhibition (Platelet [1]) | inhibition (Platelet [2]) | inhibition (Platelet [3]) | inhibition (Platelet [4]) | Activity [5] [%] | Activity [6] [%] | inhibition (Platelet [7]) | inhibition (Platelet [8]) | Activity [9] [%] | inhibition (Platelet [10]) | inhibition (Platelet [11]) | Activity [12] [%] | inhibition (Platelet [13]) | inhibition (Platelet [14]) | inhibition (Platelet [15]) | inhibition (Platelet [18]) | inhibition (Platelet [20]) | inhibition (Platelet [21]) | inhibition (Platelet [22]) | inhibition (Platelet [23]) | also measured |
| --- | --- | --- | --- | --- | --- | --- | --- | --- | --- | --- | --- | --- | --- | --- | --- | --- | --- | --- | --- | --- | --- |
| Cl.Cl.O=C(C1CCCN(Cc2ccc(CN3CCCC(C(=O)N4CCN(c5ncccn5)CC4)C3)cc2)C1)N1CCN(c2ncccn2)CC1 (stereo not given) | Active | Active | Active | Active | 58 | 92 | Active | Active | 23 | Active |  |  |  |  |  |  |  |  |  |  |  |
| Cl.Cl.O=C(C1CCCN(Cc2ccccc2)C1)N1CCN(C(=O)C2CCCN(Cc3ccccc3)C2)CC1 (stereo not given) |  |  |  |  |  |  |  |  |  |  | Active | 9 | Active | Active | Active |  |  |  |  |  |  |
| Cl.O=C(C1CCCN(Cc2ccccc2)C1)N1CCN(c2ccccc2Cl)CC1 (stereo not given) | Active | Active | Active | Active | 22 | 26 | Active | Active |  | Active |  |  |  |  |  | Active | Active | Active | Active | Active | Activity [16]: 86%; inhibition (Platelet [17]): Active; inhibition (Platelet [19]): Active; inhibition (Platelet [24]): Active; inhibition (Platelet [25]): Active; Activity [26]: 100%; Activity [27]: 90%; Activity [28]: 30%; Activity [29]: 23%; inhibition (Platelet [30]): Active; inhibition (Platelet [31]): Active |
| O=C(c1ccc[n+](Cc2ccccc2F)c1)N1CCN(c2ccccc2Cl)CC1.[Cl-] |  |  | Active | Active | 85 | 89 |  |  | 90 | Active | Active | 66 | Active | Active | Active |  | Active | Active | Active |  | Activity [32]: 71%; Activity [33]: 55%; inhibition (Platelet [24]): Active; Activity [34]: 71%; inhibition (Platelet [31]): Active; Activity [35]: 80% |
| Cl.Cl.O=C(C1CCCN(Cc2ccccc2F)C1)N1CCN(C(=O)C2CCCN(Cc3ccccc3F)C2)CC1 (stereo not given) |  | Active |  | Active | 64 |  |  | Active |  | Active |  |  |  |  |  |  |  |  |  |  | inhibition (Platelet [36]): Active; inhibition (Platelet [37]): Active; inhibition (Platelet [38]): Active; inhibition (Platelet [39]): Active; inhibition (Platelet [40]): Active |
| Cl.O=C(c1ccc(Br)cc1)N1CCCC(C(=O)N2CCN(c3ccccc3Cl)CC2)C1 (stereo not given) | Active |  | Active |  |  | 75 | Active |  |  |  |  |  |  |  |  | Active |  |  |  | Active | Activity [41]: 47%; inhibition (Platelet [36]): Active; inhibition (Platelet [37]): Active; inhibition (Platelet [38]): Active; inhibition (Platelet [25]): Active; inhibition (Platelet [39]): Active; Activity [28]: 81%; inhibition (Platelet [30]): Active; inhibition (Platelet [40]): Active |
